The record followed here is article PMC2566978, “Inversion of allosteric effect of arginine on N-acetylglutamate synthase, a molecular marker for evolution of tetrapods” (BMC Biochemistry, 2008).

Holding throughout (assay): NAGS activity assay, purified enzyme
Holding throughout (type): biochemical

In assay [1] the target is T1, NAGS from X. tropicalis (Western clawed frog) (Xenopus tropicalis, UniProt F6X3J6).
T1 sequence (F6X3J6 39-491): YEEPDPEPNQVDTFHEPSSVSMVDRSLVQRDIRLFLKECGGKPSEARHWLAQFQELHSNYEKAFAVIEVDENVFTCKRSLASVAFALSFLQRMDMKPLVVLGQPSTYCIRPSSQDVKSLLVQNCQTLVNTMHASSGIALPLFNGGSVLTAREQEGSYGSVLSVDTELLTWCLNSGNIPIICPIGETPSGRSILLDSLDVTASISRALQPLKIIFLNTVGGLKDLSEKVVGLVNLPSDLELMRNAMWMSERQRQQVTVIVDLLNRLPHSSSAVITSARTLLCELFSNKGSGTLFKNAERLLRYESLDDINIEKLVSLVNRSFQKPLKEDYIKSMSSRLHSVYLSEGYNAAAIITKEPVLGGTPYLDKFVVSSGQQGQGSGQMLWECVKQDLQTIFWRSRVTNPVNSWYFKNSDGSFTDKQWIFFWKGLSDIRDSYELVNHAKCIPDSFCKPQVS
The note with it: 50 mM glutamate, 12.5 mM AcCoA, room temperature; allosteric activator.

The target of the next assay is T2, pufferfish NAGS (Takifugu rubripes, UniProt H2T4D9).
T2 sequence (H2T4D9 51-529): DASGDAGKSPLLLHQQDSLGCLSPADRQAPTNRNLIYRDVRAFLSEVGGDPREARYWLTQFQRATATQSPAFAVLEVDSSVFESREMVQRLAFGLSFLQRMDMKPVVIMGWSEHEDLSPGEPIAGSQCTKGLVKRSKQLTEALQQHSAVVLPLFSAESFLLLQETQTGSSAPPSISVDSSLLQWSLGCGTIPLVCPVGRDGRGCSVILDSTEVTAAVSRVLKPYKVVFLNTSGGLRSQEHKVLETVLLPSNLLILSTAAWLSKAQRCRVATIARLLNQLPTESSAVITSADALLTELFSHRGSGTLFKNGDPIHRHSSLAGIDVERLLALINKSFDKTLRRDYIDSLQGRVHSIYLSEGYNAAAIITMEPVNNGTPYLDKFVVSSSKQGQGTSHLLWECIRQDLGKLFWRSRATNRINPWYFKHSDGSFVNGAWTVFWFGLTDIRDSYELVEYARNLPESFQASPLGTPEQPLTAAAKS
The note with it: read-out: % inhibition at 1 mM.

The next assay concerns the target T3, zebrafish NAGS (Danio rerio, UniProt E7FCP8).
T3 sequence (E7FCP8 40-527): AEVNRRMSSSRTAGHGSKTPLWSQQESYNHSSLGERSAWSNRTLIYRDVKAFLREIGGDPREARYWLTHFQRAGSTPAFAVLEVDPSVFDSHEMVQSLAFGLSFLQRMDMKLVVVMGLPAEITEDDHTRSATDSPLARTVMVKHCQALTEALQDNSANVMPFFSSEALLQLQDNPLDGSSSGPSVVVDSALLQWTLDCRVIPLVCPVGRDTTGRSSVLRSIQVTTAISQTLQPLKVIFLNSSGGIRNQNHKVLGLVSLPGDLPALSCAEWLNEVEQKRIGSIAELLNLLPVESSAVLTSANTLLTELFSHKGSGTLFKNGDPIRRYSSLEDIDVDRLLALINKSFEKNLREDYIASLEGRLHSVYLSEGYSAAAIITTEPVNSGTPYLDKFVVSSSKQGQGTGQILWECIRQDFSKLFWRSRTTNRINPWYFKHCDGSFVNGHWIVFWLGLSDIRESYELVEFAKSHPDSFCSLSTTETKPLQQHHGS
The note with it: read-out: % inhibition at 1 mM.

The target of assay [2] is T4, NAGS from X. laevis (African clawed frog) (Xenopus laevis, UniProt A0A8J1M136).
T4 construct: gene LOC108702180
T4 sequence (A0A8J1M136 31-491): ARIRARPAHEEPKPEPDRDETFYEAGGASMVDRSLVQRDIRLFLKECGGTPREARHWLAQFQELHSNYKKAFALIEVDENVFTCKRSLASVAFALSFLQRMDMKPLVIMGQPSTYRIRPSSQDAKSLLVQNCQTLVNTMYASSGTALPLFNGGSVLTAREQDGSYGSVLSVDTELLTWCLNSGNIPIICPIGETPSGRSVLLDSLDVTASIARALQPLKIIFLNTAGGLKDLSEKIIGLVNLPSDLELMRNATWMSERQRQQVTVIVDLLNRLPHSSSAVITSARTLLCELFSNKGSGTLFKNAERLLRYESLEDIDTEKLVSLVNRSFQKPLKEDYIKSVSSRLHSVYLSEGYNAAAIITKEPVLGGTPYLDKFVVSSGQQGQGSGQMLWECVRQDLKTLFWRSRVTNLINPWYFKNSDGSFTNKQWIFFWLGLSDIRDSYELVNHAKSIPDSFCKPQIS
The conditions noted are these: 50 mM glutamate, 12.5 mM AcCoA, room temperature; allosteric activator.

What is called inhibition is the relative decrease from the control value, in per cent. Turning to `N=C(N)NCCC[C@H](N)C(=O)O` [L-arginine], the entries for the “% activation at 1 mM” value in assay [1] and in assay [2] were 38% and 20%, respectively. Also, the results for the inhibition at 1000 µM at pufferfish NAGS and at zebrafish NAGS were roughly 20% and roughly 50%, respectively.
